Source: patent US9833439B2, “ERK inhibitors for use in treating spinal muscular atrophy” (UNIVERSITE PARIS DESCARTES, priority 2011, dated 2017)

What was measured:
SMN transcripts = details: very severe SMA-like mice; splicing pattern not modified; cited from earlier work
[1] = system: SMN2 promoter CRE sites 1 and 2; test: ChIP of Phospho-Elk-1 and Phospho-CREB on SMN2 promoter CRE sites in ventral lumbar spinal cord; type: in vivo, mice; details: SMA spinal cords, intrathecal NMDA
Excerpt: The knockout-transgenic SMA-like mice (Smn^−/−, SMN2^+/+) were purchased from the Jackson Laboratory (Bar Harbor, Me.) and genotyped as previously described^15. Vehicle-treated group, NMDA-treated group, U0126-treated group and AZD6244-treated group of type 1 SMA-like mice were randomly constituted in a blind systematic manner to minimize bias. The control mice were heterozygous knock-out for Smn with the human SMN2 transgene (Smn^−/+, to SMN2^+/+).
In order to evaluate phospho-Elk-1 and phospho-CREB role on Smn2 promoter, P1 neonatal control and SMA-like mice, were either injected intrathecally with 5 pmol of N-methyl-D-aspartic Acid 100 μM (NMDA, Sigma, Saint Quentin Fallavier, France) in 0.5 μl/g of 0.9% NaCl dyed in blue Evans per gram. […]
Ventral lumbar Spinal Cord samples were chopped into small pieces with a scalpel and were fixed for 15 min with 1% formaldehyde. […] Lysates were cleared by centrifugation and DNA concentration was determined using a nanodrop spectrophotometer. […]
Quantitative real time PCR was performed with standard protocols using SYBR®Green ROX Mix (ABgene, Courtaboeuf, France) as a fluorescent detection dye in ABI PRISM® 7000 in a final volume of 10 μl which also contains 300 nM of primers (Operon, Cologne, Germany)
The relative amounts of DNA in samples were determined on the basis of the threshold cycle for each PCR product (Ct).

SMN protein = type: in vivo, mice; details: oral treatment
AKT = details: SMA mice, oral treatment
SMA-like mice [2] = test: Body weight of SMA-like mice; type: in vivo; details: oral treatment
Procedure: The knockout-transgenic SMA-like mice (Smn^−/−, SMN2^+/+) were purchased from the Jackson Laboratory (Bar Harbor, Me.) and genotyped as previously described^15. […] The control mice were heterozygous knock-out for Smn with the human SMN2 transgene (Smn^−/+, to SMN2^+/+). […] These mice were compared to control and SMA-like mice either injected from P1 with 0.5 μl/g of 0.9% NaCl 1% DMSO dyed in blue Evans or orally treated with 2 μl/g of 0.9% NaCl 1% DMSO. Body weight and life span recordings were performed every day until the death of the animal. The animals were considered as dead when mice were no longer able to stand up 20 sec after having been placed on their sides.

SMA-like mice [3] = test: Life span of severe SMA-like mice; type: in vivo; details: oral treatment

## CN[C@H](CC(=O)O)C(=O)O [NMDA, N-methyl-D-aspartic Acid]
SMN transcripts
  total amount of SMN transcripts in the SMA spinal cord: increased
[1]
  ratio of CREB and Elk-1 binding on the CRE sites: completely reversed

## Cn1cnc2c(F)c(Nc3ccc(Br)cc3Cl)c(C(=O)NOCCO)cc21 [Selumetinib, 6-(4-bromo-2-chloroanilino)-7-fluoro-N-(2-hydroxyethoxy)-3-methylbenzimidazole-5-carboxamide]
SMN protein
  SMN expression in the spinal cord of SMA mice: activation
AKT
  AKT activation: activation
SMA-like mice [2]
  body weight: progressive gain
SMA-like mice [3]
  life span of SMA mice: remarkable increase
